How the values were obtained:
C3a receptor = biological target: T1, C3a receptor (Homo sapiens, UniProt Q16581); assay: Ca2+-flux assay of C3a receptor antagonism in transfected HEK293 cells; assay type: cell-based; details: antagonist 10 nM, mouse TLQP-21 1 μM, 15 minutes preincubation, HEK293 with C3a receptor and GNA16 vectors, vs control; FIG. 6
T1 sequence (Q16581 1-482): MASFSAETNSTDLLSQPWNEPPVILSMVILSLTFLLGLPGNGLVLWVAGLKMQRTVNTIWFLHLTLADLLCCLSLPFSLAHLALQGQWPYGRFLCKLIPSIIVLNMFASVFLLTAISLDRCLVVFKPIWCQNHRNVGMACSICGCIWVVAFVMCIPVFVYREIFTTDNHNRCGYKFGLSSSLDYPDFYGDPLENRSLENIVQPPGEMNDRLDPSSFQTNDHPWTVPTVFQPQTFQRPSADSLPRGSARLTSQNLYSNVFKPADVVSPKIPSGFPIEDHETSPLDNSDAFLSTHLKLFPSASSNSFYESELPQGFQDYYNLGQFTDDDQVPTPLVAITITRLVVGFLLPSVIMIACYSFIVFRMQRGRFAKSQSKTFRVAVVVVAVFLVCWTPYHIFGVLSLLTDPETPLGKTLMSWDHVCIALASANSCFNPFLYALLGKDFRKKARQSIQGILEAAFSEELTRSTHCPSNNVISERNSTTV
Method: In the following evaluation, Compound 1 and Compound 2 were dissolved in DMSO and diluted with HBSS as appropriate.
Human Embryonic Kidney cells 293 (HEK293) were used, transfected with the expression vectors necessary for evaluation according to the following.
A transfection solution was prepared by sequentially adding C3a receptor expression vector, GNA16 expression vector, and PEI-MAX (PolyScience) solution to serum-free DMEM medium, mixing well, and then allowing it to stand at room temperature for 20 minutes. […]
The cells for evaluating C3a receptor response described above were seeded in a 96-well Black Polystyrene Microplate (Thermo fisher scientific) precoated with Poly-L-Ornithine Solution (FUJIFILM Wako Pure Chemical). […] After 15 minutes, a mouse TLQP-21 solution was added for C3a receptor stimulation, and the Ca^2+ influx associated with the stimulation was measured over time as intracellular fluorescence intensity (Ex: 494 nm, Em: 525 nm). The value obtained by subtracting the measured value when HBSS was added instead of mouse TLQP-21 solution (blank) was used as the measured value. The C3a receptor antagonist solution and mouse TLQP-21 solution were added after adjusting their concentrations by appropriately diluting them so that their final concentrations when measuring fluorescence intensity were 10 nM and 1 μM, respectively. […]

[1] = tested on: AD model mice (NC/Nga, mite allergen-induced); assay: Amelioration of pruritus in AD model mice (scratching behavior, MicroAct); assay type: in vivo, mouse; details: 200 μL subcutaneous, 0.5 mg/mL Compound 1 or 0.05 mg/mL Compound 2, three times a week; measured 3 hours; vs solvent alone; FIG. 7
Method: Seven-week-old female NC/Nga mice were used. Preparation of AD model mice: The back of the neck was shaved, and 100 mg of an ointment containing mite allergen: Biostir AD (Biostir Inc.) was applied to the back of the neck and auricular region under isoflurane anesthesia for initial sensitization. Four days after the first application of the ointment containing mite allergen, 150 μL of 4% (w/v) SDS solution and 100 mg of ointment containing mite allergen were applied to the back of the neck and auricular region under isoflurane anesthesia. Thereafter, the same procedure was performed four times at a frequency of once every 3 to 4 days to induce AD-like dermatitis.
Compound 1 or Compound 2, whose C3a receptor antagonism was confirmed in Example 4 above, was used as a C3a receptor antagonist. Compound 1 or Compound 2 was dissolved in saline containing 20% polyethylene glycol 400, of which 200 μL was administered subcutaneously to the back of the neck. The control group was administered with the same amount of only the above solvent. The concentration of the C3a receptor antagonist solution was set at 0.5 mg/mL for Compound 1 and 0.05 mg/mL for Compound 2. […]
Four days after the last application of the ointment containing mite allergen, the scratching behavior was measured for 3 hours after the last administration of the sample. […]

[2] = tested on: AEW model mice (C57BL/6J); assay: Amelioration of pruritus in AEW model mice (scratching behavior, MicroAct); assay type: in vivo, mouse; details: 200 μL subcutaneous, 0.5 mg/mL Compound 1 or 0.05 mg/mL Compound 2, once daily for 8 days; measured 3 hours; vs solvent alone; FIG. 8
Source text: The animals used were male C57BL/6J mice.
Preparation of AEW model: The back of the neck was shaved, and absorbent cotton soaked with a 1:1 (v/v) mixture of acetone and diethyl ether was applied and allowed to stand for 15 seconds. Immediately thereafter, absorbent cotton soaked with water was applied for 30 seconds. This treatment was repeated twice/day (morning and evening) for 7 days.
Compound 1 or Compound 2, whose C3a receptor antagonism was confirmed in Example 4 above, was used as a C3a receptor antagonist. Compound 1 or Compound 2 was dissolved in saline containing 20% polyethylene glycol 400, of which 200 μL was administered subcutaneously to the back of the neck. The control group was administered with the same amount of only the above solvent. The concentration of the C3a receptor antagonist solution was set at 0.5 mg/mL for Compound 1 and 0.05 mg/mL for Compound 2. Sample administration started after the first AEW treatment and was performed at a frequency of once daily for 8 days.
Sixteen hours after the last AEW treatment, the scratching behavior was measured for 3 hours after the last administration of the sample. MicroAct (Neuroscience) was used to measure the scratching behavior.

SMILES	Fluorescence intensity due to C3a receptor stimulation by TLQP-21 (integrated over 3 min) (C3a receptor)	Scratching behavior in AD model mice [1]	Scratching behavior in AEW model mice [2]
N=C(N)NCCC[C@H](NC(=O)c1ccc(C(c2ccccc2)c2ccccc2)s1)C(=O)O [Compound 1, L-arginine, N2-[[5-(diphenylmethyl)-2-thienyl]carbonyl]]	greatly suppressed	significant decrease in scratching behavior	significant decrease in scratching behavior
Cc1cc(C(c2ccc(Cl)cc2)c2ccc(Cl)cc2)sc1C(=O)N[C@@H](CCCNC(=N)N)C(=O)O [Compound 2, L-arginine, N2-[[5-[bis(4-chlorophenyl)methyl]-3-methyl-2-thienyl]carbonyl]]	greatly suppressed	significant decrease in scratching behavior	significant decrease in scratching behavior

From patent US20240415807A1, “AGENT FOR PREVENTING OR AMELIORATING PRURITUS” (KAO CORPORATION, priority 2021, published 2024)
